# Measurements taken from patent US20240239861A1, “GLUCAGON-RECEPTOR SELECTIVE POLYPEPTIDES AND METHODS OF USE THEREOF” (i2O Therapeutics, Inc., priority 2016, published 2024).
# “Also recorded” adds a separate entry of the source. Where a SMILES comes first, the peptide text is derived from it. [ ]: non-standard residue; d: D form. Aib = CC(C)(N)C(=O)O
# What was measured:
# [1] = Body weight change in DIO Long Evans rats after 13 days continuous dosing by osmotic pump; details: for weight loss compared to vehicle control after 13 days: DIO LE rats, single agent; for ED50 of weight loss: DIO rats
# Protocol: Rats were 15-17 weeks old at the start of the study. The rats were housed 1 per cage and given ad libitum access to high fat diet (Harlan TD.95217, 4.3 kcal/g) and water, maintained on a 12 hr light/dark cycle from 5:00 AM to 5:00 PM at 21° C. and 50% relative humidity and allowed to acclimate for at least 10 days prior to the surgeries. Baseline fat mass and non-fat mass measurements were taken 3 days before the start of peptide infusion using a QMR instrument (Echo Medical Systems, Houston, TX). Body weight measurements were taken 2 times/week starting three days before the surgery. Rats were randomized according to their percent body fat mass and/or body weight into the various treatment groups (n=4-6 rats/group). […] On the day of surgery, rats were anesthetized under isoflurane and the dorsal skin surface was shaved and cleansed. Rats were injected SC with Flunexin (2.5 mg/kg). A 1-2 cm surgical incision was made between the scapulae. Using blunt dissection, a 2-3 cm subcutaneous tunnel was created into which the sterile, filled, mini-osmotic pump was introduced. The skin opening was closed with a skin staple. Each rat was implanted with either one or two osmotic pumps containing vehicle or peptide according to their treatment group. All the data are presented as mean±SEM. The data were analyzed in Excel and/or Prism (GraphPad Software, Inc., La Jolla, CA) using one-way ANOVA to compare each group to the appropriate control group.
# human GLP-1R = human GLP-1R (Homo sapiens, UniProt P43220); assay: Peptide-receptor mediated cAMP accumulation (LANCE Ultra cAMP) in CHO-K1 cells transfected with human GLP-1R; format: cell-based
# [2] = Stability in water or saline at 37° C. and room temperature, 30 days, LC/MS and HPLC purity; format: physicochemical
# From the text: Samples were withdrawn at a regular interval for 30 days and analyzed by LC/MS and HPLC for determination of purity and mass of the degradation product.
# [3] = 3-hour subcutaneous infusion pharmacokinetics; details: male, rat, in vivo
# Protocol: Peptides were formulated in sterile saline and administered as a 3-hour subcutaneous infusion to non-fasted male Wistar Han or Sprague-Dawley rats (n=3 per group) at a final dose of 0.3 or 0.1 mg/kg via a cannula placed into the subcutaneous space between the scapulae. […] Plasma was prepared by centrifugation and stored at −80° C. until analysis.
# Protein Precipitation: All 96-well plates were coated with a blocking agent to mitigate non-specific binding of peptides. Plasma samples (75 uL) were added to a 96-well plate containing 200 uL of 2:1 ethanol:acetonitrile containing 0.1% TFA and mixed well via aspiration. Plates were capped, vortex-mixed and centrifuged. Supernatants (215 uL) were transferred to a clean 96-well plate, evaporated to dryness under nitrogen flow and then reconstituted in 75 μL of 20% acetonitrile in water containing 0.10% formic acid.
# Solid-Phase Extraction: Samples were diluted 3-fold with 5% NH4OH (aq) and loaded onto an Oasis MAX microElution plate (Waters Corp, Milford, MA) that had been pre-conditioned with 200 uL each of methanol and 5% NH4OH (aq). The plate was washed with 200 uL 5% NH4OH (aq), followed by 200 uL 20% acetonitrile in water. […]
# All calibration standards were prepared in control rat plasma containing K2EDTA and protease inhibitor cocktail. […] Peptides were quantified my monitoring one or more product ions produced from a multiply charged parent ion.
# [4] = Clearance at intravenous infusion rate of 10 mcg/kg/hr; details: for clearance: rat, in vivo, 10 mcg/kg/hr
# [5] = Clearance following intravenous infusion, acylated peptides (1-hour infusion, 0.033 mg/kg); details: rat, in vivo, Table 8, male rats, unit inferred
# [6] = 3-hour intravenous infusion pharmacokinetics, peptide clearance (CL); details: male, rat, in vivo
# [7] = Steady state plasma concentrations of glucagon analogs given subcutaneously by osmotic minipump; format: in vivo, rat
# hGIPR = molecular target: T1, hGIPR (Homo sapiens, UniProt P48546); assay: Human in vitro potency (pEC50) at hGIPR; format: cell-based
# T1 sequence (P48546 22-466): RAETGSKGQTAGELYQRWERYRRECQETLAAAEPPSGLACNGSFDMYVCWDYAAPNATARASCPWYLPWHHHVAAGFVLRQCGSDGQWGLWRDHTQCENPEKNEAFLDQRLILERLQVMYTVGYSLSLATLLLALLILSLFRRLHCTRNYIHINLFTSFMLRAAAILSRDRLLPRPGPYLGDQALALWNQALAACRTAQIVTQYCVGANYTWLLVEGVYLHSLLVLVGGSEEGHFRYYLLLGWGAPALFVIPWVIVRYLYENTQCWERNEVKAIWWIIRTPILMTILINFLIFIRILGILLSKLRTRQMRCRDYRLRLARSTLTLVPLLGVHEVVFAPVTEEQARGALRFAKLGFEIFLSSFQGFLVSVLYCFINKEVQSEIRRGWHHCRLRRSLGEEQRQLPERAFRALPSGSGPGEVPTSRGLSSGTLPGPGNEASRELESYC
# [8] = Solubility in water or saline at room temperature, visual inspection; format: physicochemical
# From the text: Samples were visually inspected for clarity of the sample, any appearance of turbidity or haziness.
# [9] = Body weight change in diet-induced obese rats over 27 days, Compound A1 with or without exenatide; format: in vivo, rat
# human GCGR = human GCGR (Homo sapiens, UniProt P47871); assay: Peptide-receptor mediated cAMP accumulation (LANCE Ultra cAMP) in CHO-K1 cells transfected with human GCGR; format: cell-based
# Chain of human GCGR (P47871 26-477): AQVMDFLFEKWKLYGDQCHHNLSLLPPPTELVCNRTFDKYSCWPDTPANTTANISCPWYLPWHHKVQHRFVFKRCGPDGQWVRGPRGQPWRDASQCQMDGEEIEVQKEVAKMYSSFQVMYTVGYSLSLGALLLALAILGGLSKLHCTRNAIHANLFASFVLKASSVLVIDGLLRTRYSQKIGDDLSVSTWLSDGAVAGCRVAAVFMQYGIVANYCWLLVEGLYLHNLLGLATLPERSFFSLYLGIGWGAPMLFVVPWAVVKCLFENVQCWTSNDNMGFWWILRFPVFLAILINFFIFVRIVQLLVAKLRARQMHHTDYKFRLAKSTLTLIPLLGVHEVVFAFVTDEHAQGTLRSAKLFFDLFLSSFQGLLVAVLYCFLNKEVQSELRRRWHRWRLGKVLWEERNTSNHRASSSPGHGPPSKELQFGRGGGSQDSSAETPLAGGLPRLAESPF
# Chain of human GLP-1R (P43220 24-463): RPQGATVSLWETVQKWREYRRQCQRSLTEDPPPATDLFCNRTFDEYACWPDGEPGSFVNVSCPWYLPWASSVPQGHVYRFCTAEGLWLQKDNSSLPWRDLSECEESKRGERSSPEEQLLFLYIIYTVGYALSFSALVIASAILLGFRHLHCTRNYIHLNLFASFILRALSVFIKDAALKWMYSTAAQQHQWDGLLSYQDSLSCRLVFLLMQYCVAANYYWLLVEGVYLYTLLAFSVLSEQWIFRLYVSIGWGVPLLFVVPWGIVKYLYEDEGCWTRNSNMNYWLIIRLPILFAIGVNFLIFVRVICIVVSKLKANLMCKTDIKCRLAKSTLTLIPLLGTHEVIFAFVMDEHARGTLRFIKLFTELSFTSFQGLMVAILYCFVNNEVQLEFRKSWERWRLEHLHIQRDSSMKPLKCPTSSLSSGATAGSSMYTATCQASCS
smiles,measurement,setting,value
CC(C)C[C@H](NC(=O)[C@H](Cc1ccc(O)cc1)NC(=O)[C@H](CCCCN)NC(=O)[C@H](CO)NC(=O)[C@H](Cc1ccc(O)cc1)NC(=O)[C@H](CC(=O)O)NC(=O)[C@H](CO)NC(=O)[C@@H](NC(=O)[C@H](Cc1ccccc1)NC(=O)[C@@H](NC(=O)CNC(=O)[C@H](Cc1c[nH]cn1)NC(=O)[C@H](CO)NC(=O)[C@@H](N)Cc1ccc(O)cc1)[C@@H](C)O)[C@@H](C)O)C(=O)N[C@@H](CC(=O)O)C(=O)NC(C)(C)C(=O)N[C@@H](CCCCN)C(=O)N[C@@H](Cc1ccc(O)cc1)C(=O)N[C@@H](C)C(=O)N[C@@H](CCC(N)=O)C(=O)N[C@@H](CCC(=O)O)C(=O)N[C@@H](Cc1ccccc1)C(=O)N[C@H](C(=O)NC(C)(C)C(=O)N[C@@H](Cc1c[nH]c2ccccc12)C(=O)N[C@@H](CC(C)C)C(=O)N[C@@H](CCC(=O)O)C(=O)N[C@@H](CC(=O)O)C(=O)N[C@@H](CCC(=O)O)C(=O)N1CCC[C@H]1C(=O)N[C@@H](CO)C(=O)N[C@@H](CO)C(=O)NCC(=O)N[C@@H](C)C(=O)N1CCC[C@H]1C(=O)N1CCC[C@H]1C(=O)N1CCC[C@H]1C(=O)N[C@@H](CO)C(=O)O)C(C)C [Compound A1] (H-YSHGTFTSDYSKYLD[Aib]KYAQEFV[Aib]WLEDEPSSGAPPPS-OH; N-terminus assumed),weight loss compared to vehicle control after 13 days,[1]; 0.01 mg/kg/day,5.6%
same,weight loss compared to vehicle control after 13 days,[1]; 0.03 mg/kg/day,3.5%
same,weight loss compared to vehicle control after 13 days,[1]; 0.1 mg/kg/day,10%
same,weight loss compared to vehicle control after 13 days,[1]; 0.3 mg/kg/day,22.6%
same,ED50 of weight loss,"[1]; 13 days infusion, fits sharing vehicle response and common maximum (FIG. 9)",51 µg/kg/day
same,ED50 of weight loss,"[1]; 13 days sc minipump, 4-parameter sigmoid fit of each agent (FIG. 8; Table 6 prints no unit)",65.7 µg/kg/day
same,% Weight loss Single,"[1]; Table 6, rat in vivo",26%
same,in vivo potency compared with exenatide,[1]; administered alone,almost as potent in vivo as exenatide
same,maximal weight loss relative to exenatide,"[1]; greater, administered alone",2.3 fold
same,common maximal weight loss response,"[1]; over 13 days, fits constrained to share it (FIG. 9)",27.2%
same,activation profile at the human GLP-1 receptor (GLP-1R),human GLP-1R; FIG. 1B,inactive on GLP-1R
same,EC50,"human GLP-1R; GLP-1R pEC50, Table 7, GLP-1R",> 1 µM
same,EC50,"human GLP-1R; Human in vitro Potency (pEC50) hGLP-1R, Table 6",6.31 µM
same,EC50,"human GLP-1R; hGLP1 pEC50 (cAMP mean (n = 3): 11 point curve starting at 1 nM, Table 3)",6.31 µM
same,EC50,"human GLP-1R; hGLP1 pEC50 (cAMP) mean (n = 9): 11 point curve starting at 500 uM, Table 2A",6.31 µM
same,Stability 1 mg/ml in water at 37 degC,"[2]; Table 3, % printed only in cells of A1-A6",>71%
same,Physiochemical Properties Stability,[2]; Table 6,>95%
same,bioavailability,[3],74%
same,clearance compared with exenatide and glucagon,[4]; FIG. 7,less than that of exenatide and glucagon
same,mode of clearance,"[4]; FIG. 7, Table 5 values close to GFR",cleared from plasma via glomerular filtration
same,clearance,"[4]; Rat PK Cl, Table 6, unit inferred",11.5 mL/min/kg
same,clearance,"[4]; iv, CL mL/min/kg, Table 5, intravenous infusion rate 10 mcg/kg/hr",10.6 mL/min/kg
same,clearance,[5]; read-out: CL (IV/SubQ),11.5 mL/min/kg
same,half-life,[5]; read-out: T ½ (converted),49.8 min
same,clearance,[6],11.5 mL/min/kg
same,mode of clearance,"[7]; FIG. 6, steady state plasma concentration vs inulin/GFR",consistent with being via glomerular filtration; also recorded: cleared mainly by glomerular filtration
same,subcutaneous bioavailability,"[7]; sc osmotic minipump, rat",high
same,EC50,hGIPR,> 10 µM
same,solubility,"[8]; Table 3, room temperature, read-out: Solubility in water",> 200 mg/mL
same,Physiochemical Properties Solubility,"[8]; Table 6, unit not given",>200
same,interaction of the combination with exenatide on weight loss,"[9]; 27 days, Compound A1 24 and 50 mcg/kg/day with exenatide 10 mcg/kg/day",supra-additive (synergistic) effect
same,"maximal weight loss response, combination with exenatide","[9]; 27 days, Compound A1 with exenatide 10 mcg/kg/day",~47%
same,increase in body weight over 27 days,"[9]; DIO rats, Compound A1 alone 7.5 mcg/kg/day",~4%
same,increase in body weight over 27 days,"[9]; DIO rats, Compound A1 alone 24 mcg/kg/day",~4%
same,decrease in body weight over 27 days,"[9]; DIO rats, Compound A1 alone, highest infusion rate (50 mcg/kg/day)",16.8%
same,EC50,human GCGR,0.0251 nM
same,activation profile at the human glucagon receptor (GCGR),human GCGR; FIG. 1A,nearly equipotent on GCGR
